In patent US20230219898A1, “COMPOUNDS AND METHODS FOR BLOCKING APOPTOSIS AND INDUCING AUTOPHAGY” (President and Fellows of Harvard College, priority 2020, published 2023):

Tests used:
RIPK1 in complex I = test: RIPK1 activation in complex I of TNFα-stimulated MEFs; type: cell-based, mouse; details: 10 μM
Procedure: Cells were seeded in 15 cm dishes and treated as indicated with Flag-TNFα ([…]). To terminate treatment, media was removed and plates were washed with 50 mL of ice cold PBS. Plates were frozen at −80C until all time points were acquired. Plates were thawed on ice and cells were lysed in 0.5% NP-40 lysis buffer (50 mM Tris-HCl pH 7.5, 150 mM NaCl and 0.5% NP-40) supplemented with protease inhibitors and N-Ethylmaleimide (2.5 mg/ml). Cell lysates were rotated at 4° C. for 30 min then clarified at 4° C. at 14,000 rpm for 30 min. Proteins were immunoprecipitated from cleared protein lysates with 20 μl of anti-Flag M2 beads (Sigma) with rotation overnight at 4° C. 4×washes in 0.5% NP-40 buffer with N-Ethylmaleimide were performed, and samples eluted by boiling in 50 μl 1×SDS loading buffer. For complex-II purification cells were seeded in 10 cm dishes and treated as indicated using media containing TNFα (10 ng/ml) and zVAD (20 μM). Cells were lysed on ice in 0.5% NP-40 lysis buffer. Cell lysates were rotated at 4C for 30 min then clarified at 4C at 14,000 rpm for 10 min. 20 μl of protein G Sepharose (Sigma), after pre-blocking for 1 h with lysis buffer containing 1% BSA, were incubated with FADD antibody ([…]) and the mixture was incubated in rotation with cleared protein lysates 4 h at 4C. […]

panel of 97 kinases = test: KINOMEscan profiling; type: binding; details: 10 μM
Procedure: FIG. 5d depicts the KINOMEscan profiling of Apt-1 (10 μM) against a panel of 97 kinases. Binding interactions reported as % Ctrl, where lower numbers indicate stronger hits. Negative control=DMSO (100% Ctrl); positive control=control compound (0% Ctrl); 0<% Ctrl <0.1 Very Strong; 0.1≤% Ctrl <1 Strong; 1≤% Ctrl <10 Medium; […] Weak; % Ctrl ≥35 No effects. No significant binding of Apt-1 to this panel of 97 kinases was detected. CellTiter-Glo was used to determine cell survival in (a), (b), and (c).
KINOMEscan profiling was used to assess the interaction of Apt-1 with a panel of 97 kinases as a custom service (DiscoverX/Eurofins, San Diego, Calif. USA). Briefly, DNA-tagged recombinant kinases were produced in E. coli. The assay plates with kinases were incubated at room temperature with shaking for 1 h and the affinity beads were washed with wash buffer (1×PBS, 0.05% Tween 20). The beads were then re-suspended in elution buffer. The kinase concentration in the eluates was measured by qPCR. Apt-1 were screened at […], and the results for primary screen binding interactions are reported as % Ctrl, where lower numbers indicate stronger hits in the matrix.

His-TRADD-N = biological target: T1, His-TRADD-N (Homo sapiens, UniProt Q15628); test: Thermal shift assay with His-TRADD-N; type: binding
T1 construct: expression constructs encoding Flag-TRADD-N(1-179) and HA-TRADD-C(180-312); made in house; host or cells: E. coli BL21 (DE3), pET-28a
Procedure: Recombinant WT and mutant His-TRADD-N(aal-179) protein fragment was expressed in BL21 (DE3) E. coli after induction with 0.5 mM IPTG overnight at 16C. ^15N-labeled TRADD-N domain protein was purified from E. co/i grown at 16C in minimal medium. Bacteria were harvested and disrupted by a high-pressure homogenizer and purified by Ni^2+ affinity resin (GE Healthcare). All proteins were further purified by size exclusion chromatograph on a Superdex 75 column (GE Healthcare) in a buffer containing 20 mM imidazole (pH6.6), 200 mM NaCl, 20 mM DTT and 0.05% NaN3. All NMR samples were in the same buffer at concentrations between 0.2-0.4 mM with 90% H2O/10% D2O. […]
To determine stability, purified proteins were made to a final concentration of 1 μg/l. […] The reaction was run from 25C, ramping up in increments of 0.05° C./s to a final temperature of 95C with fluorescence detection throughout the experiment to generate a dataset. Melting temperature of the protein (Tm) was determined by performing non-linear fitting of the dataset to a Boltzmann Sigmoidal curve in GraphPad Prism with the following equation: Y=Bottom+(Top-Bottom)/[1+exp(Tm-X/Slope)], where Y=fluorescence emission in arbitrary units; X=temperature; Bottom=baseline fluorescence at low temperature; Top=maximal fluorescence at top of the dataset; Slope=describes the steepness of the curve, with larger values denoting shallower curves.

mice injected with mTNFα = test: In vivo delivery of TNFα, systemic inflammation model; details: Apt-1 20 mg/kg i.p. 30 min before mTNFα 9.5 μg i.v.
Procedure: Control mice (n=9) received an equal amount of vehicle before mTNFα challenge. Mean s.e.m. Two-way ANOVA. ***P=0.0007.
WT mice (n=10, male, 8 weeks of age) were injected intravenously via the tail vein with mTNFα (9.5 μg/mouse) after an intraperitoneal injection of Apt-1 (20 mg/kg) 30 min before. Control mice (n=9) received an equal amount of vehicle 30 min before mTNFα challenge. Kaplan Meier survival curve was determined. 25. Vps34 lipid kinase assay HEK293T cells were transfected with Flag-Beclin 1 for 18 h and then treated with ICCB-19, ICCB-19i, Apt-1 (10 μM) for another 6 h. Flag-Beclin 1 was immunoprecipitated by anti-Flag to isolate Beclin 1/Vps34 complex. Immunoprecipitated beads were added with sonicated phosphatidylinositol (1 μl of 5 mg) and ATP (1 μl of 10 mM) in 30 μl reaction buffer (40 mM Tris (pH 7.5), 20 mM MgCl2, 1 mg/ml BSA) for 30 min at room temperature. Wortmannin (10 μM) was used as a control and added into the reaction to inhibit Vps34. The conversion of ATP into ADP levels was measured by an ADP-Glo Kinase Assay Kit (Promega) according to the manufacturer's instructions.

T1 sequence (Q15628 1-179): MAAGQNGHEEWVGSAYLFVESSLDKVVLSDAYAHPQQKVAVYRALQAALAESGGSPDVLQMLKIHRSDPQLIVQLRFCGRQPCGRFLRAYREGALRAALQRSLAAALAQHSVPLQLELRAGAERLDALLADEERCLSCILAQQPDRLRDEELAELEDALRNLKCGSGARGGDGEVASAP

SMILES	activation of RIPK1 in complex I induced by TNFα (RIPK1 in complex I)	off-target effects on 97 kinase targets (panel of 97 kinases)	increase of Tm of His-TRADD-N (His-TRADD-N)	survival following intravenously-delivered TNFα (mice injected with mTNFα)
O=C(CSC1=NCCN1)NC1CCCCCC1 [ICCB-19]	reduced the rapid activation of RIPK1			
CN1CCN=C1SC(C(=O)NC1CCCCCC1)c1ccccc1 (stereo not shown) [Compound 30]		no significant off-target effects	3.7 °C	increased survival
